Legend:
[1] = tested on: mesenchymal stem cell; experiment: Live and death staining (Calcein-AM/PI) of mesenchymal stem cell in tri-copolymer scaffold, static culture; format: cell-based, Wistar rats; settings: 1.0 kartogenin, 7 days, vs control group
Protocol: (§1) The mesenchymal stem cells used in the present invention were in the third generation of subculture to ensure the maintenance of the cell morphology. The proliferated stem cells were dissociated by trpsin, collected and condensed to 10^7 cells/mL. 50 μL of the cell solution was seeded on each dry scaffold. The cells were divided into static culture group and bioreactor culture group. The former changed the medium every 2 to 3 days and in the latter, after cells seeding into the scaffold and culturing for one day, it was moved into the bioreactor.
After the combination of the gelatin-hyaluronan-chondroitin tri-copolymer with the mesenchymal stem cell, the differentiating effects under the 3-dimensional culture were confirmed. Through the live and death staining, the cell condensation during early differentiation stage was examined at the presence of 1.0 kartogenin. […] Apoptosis was the process during chondrogenic differentiation of stem cell.
The fluorescent staining of Calcein-AM and Propidium Iodide (PI) was used to examine the survival distribution of the cells in the scaffold. The former was lipophilic which could easily enter into the living cell and being hydrolyzed to produce fluorescent compounds, calcein, so that only the living cell could be stained with Calcin-AM. […] When PI bound to a DNA double helix, it emitted red fluorescence. […]

[2] = tested on: mesenchymal stem cell; experiment: Safranin-O staining of glycosaminoglycans, bioreactor culture; format: cell-based, Wistar rats; settings: tri-copolymer scaffold, kartogenin, 21 days
Description: Glycosaminoglycans (GAGs) were mainly the content of the extracellular matrix secreted by the chondrocyte.
The cells were distributed on the tri-copolymer scaffold at the beginning of culture. Red was for Safranin-O staining. The Safranin-O staining of the background was from the chondroitin-6-sulfate of the material itself which was one of the Glycosaminoglycans. […] After the cell culturing for 21 days, the cell mass was examined, of which size was about 100 μm.

[3] = tested on: mesenchymal stem cell; experiment: Alcian Blue stain of mesenchymal stem cell condensation and glycosaminoglycan secretion, 2-dimensional plate culture; format: cell-based, Wistar rats; settings: 3 and 7 days, vs control without kartogenin
Description: The Isolation and Culture of the Mesenchymal Stem Cell • 1. The cell source was taken from the four limbs of two-week old Wistar rats. Rats were sacrificed and immersed in 75% alcohol. The operation process for taking four limbs was under half sterile environment. • 2. During the cellular collecting processes, sterilized equipments were used in the whole processes. Both tibia and femur of the lower limb were taken. The tip of the scissor was used to separate the bone and the muscle. The knee joints and the hip joints were taken down along the bones; the part near the ankle was difficult to remove completely, so a direct cut was made close to the ankle joints. Only the humerus in upper limb had enough amounts of cells, so just took humerus and the scapula was processed as ankle joints in having a direct cut. Finally the limbs were soaked and washed in phosphate buffer solution (PBS) with 10% antibiotics (penicillin 10,000/ml, streptomycin 10 mg/ml, amphotericin-B 0.025 mg/ml). • 3. The muscle on the limbs was clearly removed under solution, the protruding parts of the two ends were cut out and soaked into new PBS (containing 1% antibiotics). Cells were washed out by syringe filled with PBS. • 4. PBS containing cells was placed in centrifuge tubes and centrifugated at 2000 rpm for 5 minutes. The red blood cells were suspended cells which adhered to and flowed with the mesenchymal stem cell. […]

[4] = tested on: mesenchymal stem cell; experiment: Real-time PCR gene expression of mesenchymal stem cell in tri-copolymer scaffold with kartogenin, bioreactor culture; format: cell-based, Wistar rats
Description: (§2) The gene expression of the mesenchymal stem cell was examined by Real-time PCR. The results were used for determining the medium formulation in the following scaffold culture and bioreactor culture. The primers used in the present invention were shown as the following table:
as §1
After culturing the tri-copolymer material, the mesenchymal stem cell and kartogenin in the bioreactor for 7, 14 and 21 days, mRNA genes expression were examined. In this example, the control group was the mesenchymal stem cell culturing […].
After culturing in the bioreactor for 7, 14, and 21 days, mRNA gene expression was examined. In this example, the control group was the mesenchymal stem cell culturing on the 2-dimensional plate for 1 day.

[5] = tested on: mesenchymal stem cell; experiment: DMMB quantification of glycosaminoglycans in the bioreactor medium; format: cell-based, Wistar rats; settings: tri-copolymer scaffold, kartogenin, day 7, 14 and 21
Protocol: 1,9-dimethylmethlene blue (DMMB) method was used for quantifying Glycosaminoglycans (GAGs). 16 mg of DMMB was dissolved in 5 mL of 95% ethanol and diluted with 3 mL of formic acid and 25.6 mL of NaOH. Double distilled water was used to adjust the final volume to 1 liter, and the solution was maintained at pH 3.5.
250 μL of the DMMB solutions were added into 40 μL of the diluted sample solutions which were from different time points. After reacted in the dark for 10 min, the absorbance of 520 nm was detected and then the GAGs concentration was determined by interpolated onto the standard curve calculated by the chondroitin-6-sulfate.
The GAGs concentrations in the medium were determined by the DMMB method through collecting samples from the bioreactor at different time points.

[6] = tested on: mesenchymal stem cell; experiment: Real-time PCR gene expression of mesenchymal stem cell, 2-dimensional plate culture; format: cell-based, Wistar rats
Description: The Isolation and Culture of the Mesenchymal Stem Cell • 1. The cell source was taken from the four limbs of two-week old Wistar rats. Rats were sacrificed and immersed in 75% alcohol. The operation process for taking four limbs was under half sterile environment. • 2. During the cellular collecting processes, sterilized equipments were used in the whole processes. Both tibia and femur of the lower limb were taken. The tip of the scissor was used to separate the bone and the muscle. The knee joints and the hip joints were taken down along the bones; the part near the ankle was difficult to remove completely, so a direct cut was made close to the ankle joints. Only the humerus in upper limb had enough amounts of cells, so just took humerus and the scapula was processed as ankle joints in having a direct cut. Finally the limbs were soaked and washed in phosphate buffer solution (PBS) with 10% antibiotics (penicillin 10,000/ml, streptomycin 10 mg/ml, amphotericin-B 0.025 mg/ml). • 3. The muscle on the limbs was clearly removed under solution, the protruding parts of the two ends were cut out and soaked into new PBS (containing 1% antibiotics). Cells were washed out by syringe filled with PBS. • 4. PBS containing cells was placed in centrifuge tubes and centrifugated at 2000 rpm for 5 minutes. The red blood cells were suspended cells which adhered to and flowed with the mesenchymal stem cell. The supernatant was carefully removed. • 5. Hank's Balanced Salt Solution (HBSS) was added into the centrifugated cells. After mixing up, 5 mL of HBSS mixed with cells was added into 5 mL of Ficoll separating solution and centrifugated at 18-20° C. at the speed 300 g for 40 minutes. • 6. After centrifugation, the supernatant was sucked out; large amount of PBS was added to dilute the Ficoll separating solution and washed for 2-3 times. • 7. Medium was added into the centrifugated cells and mixed up for culturing. Dulbecco's Modified Eagle Medium (DMEM) with 10% fetal bovine serum (FBS) was used for the stem cell medium in this example. • 8. After the cells attached, the medium was changed every 2-3 days. When the cells was fully confluent, subcultured as the proportion of one to three or one to four.
as §2
The cells cultured in DMEM with 10% FBS were used as the control group.

[7] = tested on: mesenchymal stem cell; experiment: Immunohistochemical staining of aggrecan and type II collagen, bioreactor culture; format: cell-based, Wistar rats; settings: tri-copolymer scaffold, kartogenin
Protocol: The aggrecan and the type II collagen were characteristic proteins of the cartilage cells. The coculture structure was cultured in the dynamic bioreactor and the expressions of the proteins were presented by immunohistochemical staining. The samples culturing under the dynamic culture environment for 7, 14, and 21 days were washed in PBS, immersed in 2.5% formaldehyde for 30 minutes for immobilization. The samples were paraffin-embedded and sectioned into 5 μm. The immunohistochemistry was used to examine the characteristic protein of the cartilage cells which comprises the aggrecan and the type II collagen. After dewaxing by xylene and rehydration, the activity of endogenous peroxidase was cleaned by Hydrogen Peroxide Block reagent (ab80436, abcam, MA, USA). After antigen was repaired, non-specific background protein was bound by Protein Block (ab80436). The primary antibodies (rabbit anti-collagen-II (ab53047), rabbit anti-aggrecan (GTX86902)) of type II collagen and aggrecan were reacted with the tissue slices at 4° C. for 12 hr. After rinsing, the slices were bound with horseradish peroxidase (HRP) conjugated secondary antibody (goat anti-rabbit HRP conjugate). […] Last, the hematoxylin was incubated with the slices at room temperature for 30 minutes for counterstain.
In the present example, the cell-material complex sections were examined at 3 time points: Day 0, 7 and 21. […]

[8] = tested on: mesenchymal stem cell; experiment: Hematoxylin/Eosin histological examination of cell-material complex sections, bioreactor culture; format: cell-based, Wistar rats; settings: tri-copolymer scaffold
Protocol: After combining the gelatin-hyaluronan-chondroitin tri-copolymer and the stem cell, the coculture construct was seeded and transferred into the dynamic bioreactor for culturing. The morphology of the differentiated cells were stained with Hematoxylin/Eosin, and in the present example, the cell-material complex sections were examined at 3 time points: Day 0, 7 and 21.

[9] = tested on: hMSC; settings: cited from earlier work
[10] = day 7, control MSC on 2-dimensional plate 1 day
[11] = day 14, control MSC on 2-dimensional plate 1 day
[12] = day 21, control MSC on 2-dimensional plate 1 day

**Q.** Which “cell condensation (live and death staining)” value [1] does the source give for `O=C(O)c1ccccc1C(=O)Nc1ccc(-c2ccccc2)cc1` [kartogenin] here?
**A.** cell condensation was occurred

**Q.** What about the “proportion of cell death (live and death staining)” value [1] of the same compound?
**A.** higher

**Q.** What about the “accumulation of GAGs (Safranin-O staining)” value [2] of the same compound?
**A.** accumulation of the GAGs was examined on the surface of the cell mass

**Q.** What about the “size of the cell mass (Safranin-O/Hochest staining)” value [2] of the same compound?
**A.** about 100 μm

**Q.** What about the “early condensation and secretion of glycosaminoglycans (Alcian Blue stain)” value ([3]; 0.1 μM kartogenin) of the same compound?
**A.** promoted the condensation phenomenon

**Q.** What about the “early condensation and secretion of glycosaminoglycans (Alcian Blue stain)” value ([3]; 1.0 μM kartogenin) of the same compound?
**A.** promoted the condensation phenomenon

**Q.** And the “Aggrecan expression compared to the control group” value ([4]; day 7)?
**A.** 11.66±4.75 fold

**Q.** And the “Col2a1 gene expression compared to the control group” value ([4]; day 7)?
**A.** 13.6±4.7 fold

**Q.** What about the TIMPs expression ([4]; day 7) of the same compound?
**A.** 5.60±1.24 fold

**Q.** And the Sox-9 expression ([4]; day 7, control MSC cultured 1 day)?
**A.** 2.51±0.90 fold

**Q.** What about the “Col1a1 expression compared to the control group” value [4, 10] of the same compound?
**A.** 13.19±2.90 fold

**Q.** What about the Col10a1 expression [4, 10] of the same compound?
**A.** 39.23±9.39 fold

**Q.** And the “Runx 2 expression compared to the control group” value [4, 10]?
**A.** 8.60±3.55 fold

**Q.** And the “Aggrecan expression compared to the control group” value ([4]; day 14)?
**A.** 12.33±6.3 fold

**Q.** And the “Col2a1 gene expression compared to the control group” value ([4]; day 14)?
**A.** 28.26±11.64 fold

**Q.** What about the TIMPs expression ([4]; day 14) of the same compound?
**A.** 5.79±5.25 fold

**Q.** What about the Sox-9 expression ([4]; day 14, control MSC cultured 1 day) of the same compound?
**A.** 3.91±2.12 fold

**Q.** What about the “Col1a1 expression compared to the control group” value [4, 11] of the same compound?
**A.** 17.26±1.38 fold

**Q.** And the Col10a1 expression [4, 11]?
**A.** 36.08±26.00 fold

**Q.** What about the “Runx 2 expression compared to the control group” value [4, 11] of the same compound?
**A.** 9.89±3.82 fold

**Q.** And the “Aggrecan expression compared to the control group” value ([4]; day 21)?
**A.** 9.74±3.83 fold

**Q.** What about the “Col2a1 gene expression compared to the control group” value ([4]; day 21) of the same compound?
**A.** 40.32±9.13 fold

**Q.** What about the TIMPs expression ([4]; day 21) of the same compound?
**A.** 3.94±1.08 fold

**Q.** What about the Sox-9 expression ([4]; day 21, control MSC cultured 1 day) of the same compound?
**A.** 3.06±0.99 fold

**Q.** What about the “Col1a1 expression compared to the control group” value [4, 12] of the same compound?
**A.** 13.14±6.07 fold

**Q.** And the Col10a1 expression [4, 12]?
**A.** 5.56±5.23 fold

**Q.** What about the “Runx 2 expression compared to the control group” value [4, 12] of the same compound?
**A.** 7.35±1.96 fold

**Q.** What about the “secretion of GAGs into the medium (DMMB method)” value [5] of the same compound?
**A.** increased

**Q.** What about the “TIMPs expression compared to the control group” value ([6]; 0.1 μM kartogenin, day 14) of the same compound?
**A.** 0.91±0.04 fold

**Q.** What about the “Sox-9 gene expression relative to the control group” value ([6]; 1.0 μM kartogenin, 7 days) of the same compound?
**A.** 1.66±0.27 fold

**Q.** And the Aggrecan gene expression ([6]; 1.0 μM kartogenin, 7 days, higher than 0.1 μM group (p<0.001))?
**A.** 3.99±0.63 fold

**Q.** What about the “Aggrecan gene expression compared to the untreated group” value ([6]; 1.0 μM kartogenin, 14 days) of the same compound?
**A.** 6.44±0.35 fold

**Q.** What about the Sox-9 gene expression ([6]; 1.0 μM kartogenin, day 3 and day 7) of the same compound?
**A.** up-regulated

**Q.** What about the Sox-9 gene expression ([6]; 1.0 μM kartogenin, day 14) of the same compound?
**A.** 0.56±0.04 fold

**Q.** What about the “TIMPs expression compared to the control group” value ([6]; 1.0 μM kartogenin, day 14) of the same compound?
**A.** 1.63±0.249 fold

**Q.** What about the “type II collagen expression (immunohistochemical staining)” value ([7]; day 7 and 21, not distinct at day 0) of the same compound?
**A.** positively stained

**Q.** What about the “aggrecan expression (immunohistochemical DAB staining)” value ([7]; day 21 compared with day 7) of the same compound?
**A.** higher expression of aggrecan

**Q.** What about the “cell condensation (Hematoxylin/Eosin section)” value ([8]; kartogenin induction, day 7) of the same compound?
**A.** cell condensation was presence

**Q.** And the “lacunae structure (Hematoxylin/Eosin section)” value ([8]; kartogenin, day 21)?
**A.** lacunae like structure was examined

**Q.** What about the “size of the cell mass (Hematoxylin/Eosin section)” value ([8]; kartogenin, day 21) of the same compound?
**A.** about 100 μm

**Q.** And the EC50 [9]?
**A.** 100 nM
